Measurements: ChEMBL document CHEMBL4665836, “Overcoming β-Lactam resistance in Pseudomonas aeruginosa using non-canonical tobramycin-based antibiotic adjuvants” (2020)

Columns and labels:
Type in all cases: functional
Pseudomonas aeruginosa [1] = assay: Potentiation of imipenem-induced antibacterial activity against carbapenem and colistin-resistant Pseudomonas aeruginosa 91433 clinical isolate assessed as imipenem MIC at 8 uM by checkerboard assay (reference value: 8 ug/ml)
Pseudomonas aeruginosa [2] = assay: Antibacterial activity against Pseudomonas aeruginosa PAO200 harboring mexAB-oprM efflux deficient mutant
Pseudomonas aeruginosa [3] = assay: Potentiation of ceftazidime-induced antibacterial activity against carbapenem-resistant Pseudomonas aeruginosa 107092 clinical isolate assessed as ceftazidime MIC at 8 uM by checkerboard assay (reference value: 128 ug/ml)
Pseudomonas aeruginosa [4] = assay: Potentiation of imipenem-induced antibacterial activity against carbapenem-resistant Pseudomonas aeruginosa 107092 clinical isolate assessed as imipenem MIC at 8 uM by checkerboard assay (reference value: 64 ug/ml)
Pseudomonas aeruginosa [5] = assay: Potentiation of ceftazidime-induced antibacterial activity against carbapenem-resistant Pseudomonas aeruginosa 109084 clinical isolate assessed as fold reduction in ceftazidime MIC at 8 uM in presence of beta-lactamase inhibitor, avi-bactam
Pseudomonas aeruginosa [6] = assay: Potentiation of imipenem-induced antibacterial activity against carbapenem-resistant Pseudomonas aeruginosa 86052 clinical isolate assessed as fold reduction in imipenem MIC at 8 uM in presence of beta-lactamase inhibitor, rele-bactam
Pseudomonas aeruginosa [7] = assay: Potentiation of aztreonam-induced antibacterial activity against carbapenem-resistant Pseudomonas aeruginosa 109084 clinical isolate assessed as aztreonam MIC at 8 uM by checkerboard assay (reference value: 64 ug/ml)
Pseudomonas aeruginosa [8] = assay: Potentiation of ceftazidime-induced antibacterial activity against carbapenem-resistant Pseudomonas aeruginosa 86052 clinical isolate assessed as ceftazidime MIC at 8 uM by checkerboard assay (reference value: 64 ug/ml)
Pseudomonas aeruginosa [9] = assay: Potentiation of aztreonam-induced antibacterial activity against carbapenem-resistant Pseudomonas aeruginosa 108590 clinical isolate assessed as aztreonam MIC at 8 uM by checkerboard assay (reference value: 32 ug/ml)
Pseudomonas aeruginosa [10] = assay: Potentiation of ceftazidime-induced antibacterial activity against carbapenem-resistant Pseudomonas aeruginosa 259-96918 clinical isolate expressing metallo-beta-lactamase assessed as ceftazidime MIC at 8 uM by checkerboard assay (reference value: 512 ug/ml)
Pseudomonas aeruginosa [11] = assay: Potentiation of imipenem-induced antibacterial activity against carbapenem-resistant Pseudomonas aeruginosa 86052 clinical isolate assessed as imipenem MIC at 8 uM by checkerboard assay (reference value: 32 ug/ml)
Pseudomonas aeruginosa [12] = assay: Potentiation of imipenem-induced antibacterial activity against wild-type Pseudomonas aeruginosa PAO1 assessed as imipenem MIC at 8 uM by checkerboard assay (reference value: 4 ug/ml)
Pseudomonas aeruginosa [13] = assay: Potentiation of imipenem-induced antibacterial activity against carbapenem-resistant Pseudomonas aeruginosa 260-97103 clinical isolate assessed as imipenem MIC at 8 uM by checkerboard assay (reference value: 16 ug/ml)
Pseudomonas aeruginosa [14] = assay: Potentiation of imipenem-induced antibacterial activity against carbapenem-resistant Pseudomonas aeruginosa PAO200 harboring mexAB-oprM efflux deficient mutant assessed as imipenem MIC at 8 uM by checkerboard assay (reference value: 4 ug/ml)
Pseudomonas aeruginosa [15] = assay: Potentiation of aztreonam-induced antibacterial activity against wild type Pseudomonas aeruginosa PAO1 assessed as aztreonam MIC at 8 uM by checkerboard assay (reference value: 4 ug/ml)
Pseudomonas aeruginosa [16] = assay: Potentiation of aztreonam-induced antibacterial activity against carbapenem-resistant Pseudomonas aeruginosa PAO200 harboring mexAB-oprM efflux deficient mutant assessed as aztreonam MIC at 8 uM by checkerboard assay (reference value: 0.25 ug/ml)
Pseudomonas aeruginosa [17] = assay: Potentiation of imipenem-induced antibacterial activity against carbapenem-resistant Pseudomonas aeruginosa 262-101856 clinical isolate assessed as imipenem MIC at 8 uM by checkerboard assay (reference value: 32 ug/ml)
Pseudomonas aeruginosa [18] = assay: Potentiation of ceftazidime-induced antibacterial activity against carbapenem-resistant Pseudomonas aeruginosa 107092 clinical isolate assessed as fold reduction in ceftazidime MIC at 8 uM in presence of beta-lactamase inhibitor, avi-bactam
Pseudomonas aeruginosa [19] = assay: Potentiation of ceftazidime-induced antibacterial activity against carbapenem-resistant Pseudomonas aeruginosa 101885 clinical isolate assessed as ceftazidime MIC at 8 uM by checkerboard assay (reference value: 8 ug/ml)
Pseudomonas aeruginosa [20] = assay: Potentiation of ceftazidime-induced antibacterial activity against wild type Pseudomonas aeruginosa PAO1 assessed as ceftazidime MIC at 8 uM by checkerboard assay (reference value: 2 ug/ml)
Pseudomonas aeruginosa [21] = assay: Potentiation of aztreonam-induced antibacterial activity against carbapenem-resistant Pseudomonas aeruginosa 107092 clinical isolate assessed as aztreonam MIC at 8 uM by checkerboard assay (reference value: 64 ug/ml)
Pseudomonas aeruginosa [22] = assay: Potentiation of aztreonam-induced antibacterial activity against carbapenem-resistant Pseudomonas aeruginosa 86052 clinical isolate assessed as aztreonam MIC at 8 uM by checkerboard assay (reference value: 64 ug/ml)
Pseudomonas aeruginosa [23] = assay: Potentiation of ceftazidime-induced antibacterial activity against carbapenem-resistant Pseudomonas aeruginosa 100036 clinical isolate assessed as ceftazidime MIC at 8 uM by checkerboard assay (reference value: 8 ug/ml)
Pseudomonas aeruginosa [24] = assay: Potentiation of aztreonam-induced antibacterial activity against carbapenem and colistin-resistant Pseudomonas aeruginosa 114228 clinical isolate assessed as aztreonam MIC at 8 uM by checkerboard assay (reference value: 32 ug/ml)
Pseudomonas aeruginosa [25] = assay: Potentiation of ceftazidime-induced antibacterial activity against carbapenem-resistant Pseudomonas aeruginosa 108590 clinical isolate assessed as fold reduction in ceftazidime MIC at 8 uM in presence of beta-lactamase inhibitor, avi-bactam
Pseudomonas aeruginosa [26] = assay: Potentiation of aztreonam-induced antibacterial activity against carbapenem-resistant Pseudomonas aeruginosa 108590 clinical isolate assessed as fold reduction in aztreonam MIC at 8 uM in presence of beta-lactamase inhibitor, avi-bactam
Pseudomonas aeruginosa [27] = assay: Potentiation of imipenem-induced antibacterial activity against carbapenem-resistant Pseudomonas aeruginosa 259-96918 clinical isolate expressing MBL assessed as imipenem MIC at 8 uM by checkerboard assay (reference value: 64 ug/ml)
Pseudomonas aeruginosa [28] = assay: Potentiation of imipenem-induced antibacterial activity against carbapenem-resistant Pseudomonas aeruginosa 108590 clinical isolate assessed as fold reduction in imipenem MIC at 8 uM in presence of beta-lactamase inhibitor, rele-bactam
Pseudomonas aeruginosa [29] = assay: Potentiation of ceftazidime-induced antibacterial activity against carbapenem-resistant Pseudomonas aeruginosa PAO200 harboring mexAB-oprM efflux deficient mutant assessed as ceftazidime MIC at 8 uM by checkerboard assay (reference value: 1 ug/ml)
Pseudomonas aeruginosa [30] = assay: Potentiation of ceftazidime-induced antibacterial activity against carbapenem-resistant Pseudomonas aeruginosa 88949 clinical isolate assessed as ceftazidime MIC at 8 uM by checkerboard assay (reference value: 64 ug/ml)
Pseudomonas aeruginosa [31] = assay: Potentiation of aztreonam-induced antibacterial activity against carbapenem and colistin-resistant Pseudomonas aeruginosa 101243 clinical isolate assessed as aztreonam MIC at 8 uM by checkerboard assay (reference value: 32 ug/ml)
Pseudomonas aeruginosa [32] = assay: Potentiation of imipenem-induced antibacterial activity against wild type Pseudomonas aeruginosa PAO1 assessed as fold reduction in imipenem MIC at 8 uM
Pseudomonas aeruginosa [33] = assay: Potentiation of imipenem-induced antibacterial activity against carbapenem-resistant Pseudomonas aeruginosa 107092 clinical isolate assessed as fold reduction in imipenem MIC at 8 uM in presence of beta-lactamase inhibitor, rele-bactam

Structure (SMILES) | MIC (Pseudomonas aeruginosa [1]) [µg/mL] | MIC (Pseudomonas aeruginosa [2]) [µg/mL] | MIC (Pseudomonas aeruginosa [3]) [µg/mL] | MIC (Pseudomonas aeruginosa [4]) [µg/mL] | fold change (FC) (Pseudomonas aeruginosa [5]) | fold change (FC) (Pseudomonas aeruginosa [6]) | MIC (Pseudomonas aeruginosa [7]) [µg/mL] | MIC (Pseudomonas aeruginosa [8]) [µg/mL] | MIC (Pseudomonas aeruginosa [9]) [µg/mL] | MIC (Pseudomonas aeruginosa [10]) [µg/mL] | MIC (Pseudomonas aeruginosa [11]) [µg/mL] | MIC (Pseudomonas aeruginosa [12]) [µg/mL] | MIC (Pseudomonas aeruginosa [13]) [µg/mL] | MIC (Pseudomonas aeruginosa [14]) [µg/mL] | MIC (Pseudomonas aeruginosa [15]) [µg/mL] | MIC (Pseudomonas aeruginosa [16]) [µg/mL] | MIC (Pseudomonas aeruginosa [17]) [µg/mL] | fold change (FC) (Pseudomonas aeruginosa [18]) | MIC (Pseudomonas aeruginosa [19]) [µg/mL] | MIC (Pseudomonas aeruginosa [20]) [µg/mL] | other results
NC[C@H]1O[C@H](O[C@H]2[C@H](OCCCCc3cn(CCCCO[C@@H]4[C@@H](O[C@H]5O[C@H](CO)[C@@H](O)[C@H](N)[C@H]5O)[C@H](N)C[C@H](N)[C@H]4O[C@H]4O[C@H](CN)[C@@H](O)C[C@H]4N)nn3)[C@@H](O[C@H]3O[C@H](CO)[C@@H](O)[C@H](N)[C@H]3O)[C@H](N)C[C@@H]2N)[C@H](N)C[C@@H]1O.O=C(O)C(F)(F)F.O=C(O)C(F)(F)F.O=C(O)C(F)(F)F.O=C(O)C(F)(F)F.O=C(O)C(F)(F)F.O=C(O)C(F)(F)F.O=C(O)C(F)(F)F.O=C(O)C(F)(F)F.O=C(O)C(F)(F)F.O=C(O)C(F)(F)F | 4 | > 128 | 32 | 16 | 16 | 16 | 8 | 64 | 8 | 128 | 16 | 1 | 16 | 1 | 0.25 | 0.03 | 2 | 16 | 2 | 0.25 | MIC (Pseudomonas aeruginosa [21]): 16 µg/mL; MIC (Pseudomonas aeruginosa [22]): 8 µg/mL; MIC (Pseudomonas aeruginosa [23]): 2 µg/mL; MIC (Pseudomonas aeruginosa [24]): 4 µg/mL; fold change (FC) (Pseudomonas aeruginosa [25]): 16; fold change (FC) (Pseudomonas aeruginosa [26]): 16; MIC (Pseudomonas aeruginosa [27]): 32 µg/mL; fold change (FC) (Pseudomonas aeruginosa [28]): 16; MIC (Pseudomonas aeruginosa [29]): 0.13 µg/mL; MIC (Pseudomonas aeruginosa [30]): 16 µg/mL; MIC (Pseudomonas aeruginosa [31]): 16 µg/mL; fold change (FC) (Pseudomonas aeruginosa [32]): 2; fold change (FC) (Pseudomonas aeruginosa [33]): 16
Cl.Cl.Cl.Cl.Cl.NC[C@H]1O[C@H](O[C@H]2[C@H](OCCCCCCCCCCCCN3CCN(c4cc5c(cc4F)c(=O)c(C(=O)O)cn5C4CC4)CC3)[C@@H](O)[C@H](N)C[C@@H]2N)[C@H](N)C[C@@H]1O | 8 | 4 | 64 | 16 | 16 | 16 | 32 | 4 | 0.13 | 128 | 4 | 1 | 2 | 1 | 0.5 | 0.03 | 8 | 16 | 4 | 0.25 | MIC (Pseudomonas aeruginosa [21]): 32 µg/mL; MIC (Pseudomonas aeruginosa [22]): 4 µg/mL; MIC (Pseudomonas aeruginosa [23]): 4 µg/mL; MIC (Pseudomonas aeruginosa [24]): 8 µg/mL; fold change (FC) (Pseudomonas aeruginosa [25]): 16; fold change (FC) (Pseudomonas aeruginosa [26]): 16; MIC (Pseudomonas aeruginosa [27]): 16 µg/mL; fold change (FC) (Pseudomonas aeruginosa [28]): 16; MIC (Pseudomonas aeruginosa [29]): 0.13 µg/mL; MIC (Pseudomonas aeruginosa [30]): 32 µg/mL; MIC (Pseudomonas aeruginosa [31]): 0.25 µg/mL; fold change (FC) (Pseudomonas aeruginosa [32]): 2; fold change (FC) (Pseudomonas aeruginosa [33]): 16
